Each compound was assayed on HCV replicon, genotype-1a variant with glutamine 30 changed to glutamate in the NS5A protein (assay: microbe, parasite or virus in culture). Settings: HCV replicon genotype 1a Q30E (Q→E) variant; test compound titrated with an NS5A-targeting compound (BMS-790052 fixed at 200 nM); ranking of synergist activity.
Assay type: cell-based, HCV genotype 1a
In short: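 Synergy was assessed by combining several fixed amounts of an NS5A-targeting compound with a titration of the second compound of interest.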

Compound | Fold-Synergistic 1a (Q30E) [fold]
CC(C)(C)[C@H](NC(=O)C1CCN(c2cccc(C#N)c2)C1=O)c1nc(-c2ccc(-c3ccc(-c4c[nH]c([C@@H](NC(=O)C5CCN(c6cccc(C#N)c6)C5=O)C(C)(C)C)n4)cc3)cc2)c[nH]1 (some centres unmarked) [Compound S-291] | >100
C[C@H](C(=O)OC(C)(C)C)[C@@H](C)C(=O)N[C@H](c1nc(-c2ccc(-c3ccc(-c4c[nH]c([C@@H](NC(=O)[C@H](C)[C@H](C)C(=O)OC(C)(C)C)C(C)(C)C)n4)cc3)cc2)c[nH]1)C(C)(C)C [Compound S-292] | >100
COC12CCC(C(=O)N[C@H](c3nc(-c4ccc(-c5ccc(-c6c[nH]c([C@@H](NC(=O)C78CCC(OC)(CC7)CC8)C(C)(C)C)n6)cc5)cc4)c[nH]3)C(C)(C)C)(CC1)CC2 [Compound S-293] | >100
COC(=O)C1([C@H](CC(C)C)C(=O)N[C@H](c2nc(-c3ccc(-c4ccc(-c5c[nH]c([C@@H](NC(=O)[C@@H](CC(C)C)C6(C(=O)OC)CC=CC6)C(C)(C)C)n5)cc4)cc3)c[nH]2)C(C)(C)C)CC=CC1 [Compound S-294] | >100
CC(=O)N1CCC(C(=O)N[C@H](c2nc(-c3ccc(-c4ccc(-c5c[nH]c([C@@H](NC(=O)C6CCN(C(C)=O)CC6)C(C)(C)C)n5)cc4)cc3)c[nH]2)C(C)(C)C)CC1 [Compound S-297] | >10
CC1(C(=O)N[C@H](c2nc(-c3ccc(-c4ccc(-c5c[nH]c([C@@H](NC(=O)C6(C)CC7C=CC6C7)C(C)(C)C)n5)cc4)cc3)c[nH]2)C(C)(C)C)CC2C=CC1C2 (some centres unmarked) [Compound S-298] | >100
CC(C)(C)OC(=O)N[C@]1(C(=O)N[C@H](c2nc(-c3ccc(-c4ccc(-c5c[nH]c([C@@H](NC(=O)[C@@]6(NC(=O)OC(C)(C)C)C[C@H]6CC(F)F)C(C)(C)C)n5)cc4)cc3)c[nH]2)C(C)(C)C)C[C@H]1CC(F)F [Compound W-1] | >100
CC(C)(C)OC(=O)N[C@]1(C(=O)N[C@H](c2nc(-c3ccc(-c4ccc(-c5c[nH]c([C@@H](NC(=O)[C@@]6(NC(=O)OC(C)(C)C)C[C@@H]6c6ccccc6)C(C)(C)C)n5)cc4)cc3)c[nH]2)C(C)(C)C)C[C@@H]1c1ccccc1 [Compound W-2] | >100
CC(C)(C)OC(=O)N[C@]1(C(=O)N[C@H](c2nc(-c3ccc(-c4ccc(-c5c[nH]c([C@@H](NC(=O)[C@@]6(NC(=O)OC(C)(C)C)C[C@H]6C6CC6)C(C)(C)C)n5)cc4)cc3)c[nH]2)C(C)(C)C)C[C@H]1C1CC1 [Compound W-3] | >100
C=C[C@H]1C[C@@]1(NC(=O)OC(C)(C)C)C(=O)N[C@H](c1nc(-c2ccc(-c3ccc(-c4c[nH]c([C@@H](NC(=O)[C@]5(NC(=O)OC(C)(C)C)C[C@@H]5C=C)C(C)(C)C)n4)cc3)cc2)c[nH]1)C(C)(C)C [Compound W-4] | >100
C=C[C@@H]1C[C@]1(NC(=O)OC(C)(C)C)C(=O)N[C@H](c1nc(-c2ccc(-c3ccc(-c4c[nH]c([C@@H](NC(=O)[C@@]5(NC(=O)OC(C)(C)C)C[C@H]5C=C)C(C)(C)C)n4)cc3)cc2)c[nH]1)C(C)(C)C [Compound W-7] | >100
CC(C)(C)OC(=O)N[C@]1(C(=O)N[C@H](c2nc(-c3ccc(-c4ccc(-c5c[nH]c([C@@H](NC(=O)[C@@]6(NC(=O)OC(C)(C)C)C[C@H]6c6ccccc6)C(C)(C)C)n5)cc4)cc3)c[nH]2)C(C)(C)C)C[C@H]1c1ccccc1 [Compound W-8] | >100
CC(C)(C)OC(=O)N[C@H]1CCC[C@@H]1C(=O)N[C@H](c1nc(-c2ccc(-c3ccc(-c4c[nH]c([C@@H](NC(=O)[C@H]5CCC[C@@H]5NC(=O)OC(C)(C)C)C(C)(C)C)n4)cc3)cc2)c[nH]1)C(C)(C)C [Compound W-9] | >100
CN(C)C(=O)C(=O)N[C@H](c1nc(-c2ccc(-c3ccc(-c4c[nH]c([C@@H](NC(=O)C(=O)N(C)C)C(C)(C)C)n4)cc3)cc2)c[nH]1)C(C)(C)C [Compound W-10] | >100
CC(C)(C)OC(=O)N[C@@H]1CCC[C@H]1C(=O)N[C@H](c1nc(-c2ccc(-c3ccc(-c4c[nH]c([C@@H](NC(=O)[C@@H]5CCC[C@H]5NC(=O)OC(C)(C)C)C(C)(C)C)n4)cc3)cc2)c[nH]1)C(C)(C)C [Compound W-12] | >100
CC(C)(C)[C@H](NC(=O)C(=O)c1cccs1)c1nc(-c2ccc(-c3ccc(-c4c[nH]c([C@@H](NC(=O)C(=O)c5cccs5)C(C)(C)C)n4)cc3)cc2)c[nH]1 [Compound W-19] | >100
CC(C)(C)[C@H](NC(=O)C(=O)c1ccco1)c1nc(-c2ccc(-c3ccc(-c4c[nH]c([C@@H](NC(=O)C(=O)c5ccco5)C(C)(C)C)n4)cc3)cc2)c[nH]1 [Compound W-20] | >100
CC(C)(C)[C@H](NC(=O)C(=O)N1CCCC1)c1nc(-c2ccc(-c3ccc(-c4c[nH]c([C@@H](NC(=O)C(=O)N5CCCC5)C(C)(C)C)n4)cc3)cc2)c[nH]1 [Compound W-21] | >100
CC(C)(C)[C@H](NC(=O)C(=O)N1CCC(F)(F)C1)c1nc(-c2ccc(-c3ccc(-c4c[nH]c([C@@H](NC(=O)C(=O)N5CCC(F)(F)C5)C(C)(C)C)n4)cc3)cc2)c[nH]1 [Compound W-22] | >100

Compound | Fold-Synergistic 1a (Q30E) [fold]
CC(C)(C)[C@H](NC(=O)C(=O)N1CCOCC1)c1nc(-c2ccc(-c3ccc(-c4c[nH]c([C@@H](NC(=O)C(=O)N5CCOCC5)C(C)(C)C)n4)cc3)cc2)c[nH]1 [Compound W-25] | >100
CC(C)(C)[C@H](NC(=O)C(=O)N1CCC(F)CC1)c1nc(-c2ccc(-c3ccc(-c4c[nH]c([C@@H](NC(=O)C(=O)N5CCC(F)CC5)C(C)(C)C)n4)cc3)cc2)c[nH]1 [Compound W-26] | >100
CC(C)(C)[C@H](NC(=O)C(=O)N1CC[C@H](F)C1)c1nc(-c2ccc(-c3ccc(-c4c[nH]c([C@@H](NC(=O)C(=O)N5CC[C@H](F)C5)C(C)(C)C)n4)cc3)cc2)c[nH]1 [Compound W-27] | >100
CC(C)(C)[C@H](NC(=O)C(=O)N1CC(F)(F)C1)c1nc(-c2ccc(-c3ccc(-c4c[nH]c([C@@H](NC(=O)C(=O)N5CC(F)(F)C5)C(C)(C)C)n4)cc3)cc2)c[nH]1 [Compound W-28] | >100
CC(C)(C)[C@H](NC(=O)C(=O)N1CCCCCC1)c1nc(-c2ccc(-c3ccc(-c4c[nH]c([C@@H](NC(=O)C(=O)N5CCCCCC5)C(C)(C)C)n4)cc3)cc2)c[nH]1 [Compound W-32] | >100
CCN(CC)C(=O)C(=O)N[C@H](c1nc(-c2ccc(-c3ccc(-c4c[nH]c([C@@H](NC(=O)C(=O)N(CC)CC)C(C)(C)C)n4)cc3)cc2)c[nH]1)C(C)(C)C [Compound W-33] | >100
CN1CCN(C(=O)C(=O)N[C@H](c2nc(-c3ccc(-c4ccc(-c5c[nH]c([C@@H](NC(=O)C(=O)N6CCN(C)CC6)C(C)(C)C)n5)cc4)cc3)c[nH]2)C(C)(C)C)CC1 [Compound W-35] | >100
CCN(CC(F)(F)F)C(=O)C(=O)N[C@H](c1nc(-c2ccc(-c3ccc(-c4c[nH]c([C@@H](NC(=O)C(=O)N(CC)CC(F)(F)F)C(C)(C)C)n4)cc3)cc2)c[nH]1)C(C)(C)C [Compound W-37] | >100
C[C@@H]1CCCCN1C(=O)C(=O)N[C@H](c1nc(-c2ccc(-c3ccc(-c4c[nH]c([C@@H](NC(=O)C(=O)N5CCCC[C@H]5C)C(C)(C)C)n4)cc3)cc2)c[nH]1)C(C)(C)C [Compound W-38] | >100
CC(C)(C)[C@H](NC(=O)C(=O)N(CCC#N)C1CC1)c1nc(-c2ccc(-c3ccc(-c4c[nH]c([C@@H](NC(=O)C(=O)N(CCC#N)C5CC5)C(C)(C)C)n4)cc3)cc2)c[nH]1 [Compound W-48] | >100
CC(C)N(C(=O)C(=O)N[C@H](c1nc(-c2ccc(-c3ccc(-c4c[nH]c([C@@H](NC(=O)C(=O)N(C(C)C)C5CC5)C(C)(C)C)n4)cc3)cc2)c[nH]1)C(C)(C)C)C1CC1 [Compound W-49] | >100
CN(C(=O)C(=O)N[C@H](c1nc(-c2ccc(-c3ccc(-c4c[nH]c([C@@H](NC(=O)C(=O)N(C)C5CC5)C(C)(C)C)n4)cc3)cc2)c[nH]1)C(C)(C)C)C1CC1 [Compound W-50] | >100
CC(C)[C@H](NC(=O)C(=O)N1CCC(F)(F)CC1)c1nc(-c2ccc(-c3ccc(-c4c[nH]c([C@@H](NC(=O)C(=O)N5CCC(F)(F)CC5)C(C)C)n4)cc3)cc2)c[nH]1 [Compound W-51] | >100
CC(C)[C@H](NC(=O)C(=O)N1CCCCCC1)c1nc(-c2ccc(-c3ccc(-c4c[nH]c([C@@H](NC(=O)C(=O)N5CCCCCC5)C(C)C)n4)cc3)cc2)c[nH]1 [Compound W-52] | >100
CC(C)[C@H](NC(=O)C(=O)N1CCC(C(F)(F)F)CC1)c1nc(-c2ccc(-c3ccc(-c4c[nH]c([C@@H](NC(=O)C(=O)N5CCC(C(F)(F)F)CC5)C(C)C)n4)cc3)cc2)c[nH]1 [Compound W-53] | >100
CC(C)[C@H](NC(=O)C(=O)N1C[C@@H](C)O[C@@H](C)C1)c1nc(-c2ccc(-c3ccc(-c4c[nH]c([C@@H](NC(=O)C(=O)N5C[C@@H](C)O[C@@H](C)C5)C(C)C)n4)cc3)cc2)c[nH]1 [Compound W-54] | >100
CC(C)[C@H](NC(=O)C(=O)N(C(C)C)C1CC1)c1nc(-c2ccc(-c3ccc(-c4c[nH]c([C@@H](NC(=O)C(=O)N(C(C)C)C5CC5)C(C)C)n4)cc3)cc2)c[nH]1 [Compound W-55] | >100
CCN(CC(F)(F)F)C(=O)C(=O)N[C@H](c1nc(-c2ccc(-c3ccc(-c4c[nH]c([C@@H](NC(=O)C(=O)N(CC)CC(F)(F)F)C(C)C)n4)cc3)cc2)c[nH]1)C(C)C [Compound W-56] | >100
CC1([C@H](NC(=O)C(=O)N2CCCCCC2)c2nc(-c3ccc(-c4ccc(-c5c[nH]c([C@@H](NC(=O)C(=O)N6CCCCCC6)C6(C)CC6)n5)cc4)cc3)c[nH]2)CC1 [Compound W-57] | >100

From US9326973B2, “Hepatitis C virus inhibitors” (priority 2012, dated 2016)
